How the values were obtained:
[1] = system: R2/PCFT4 (CHO); assay: proliferation assay, R2/PCFT4 CHO cells expressing PCFT only; type: cell-based, Chinese hamster; conditions: Cricetulus griseus, folate-/glycine-free RPMI1640 with 25 nM leucovorin, 96 h, drug 0-1000 nM, read-out: IC50s (SE) R2/PCFT4 (CHO)
Description: Cell culture and proliferation/protection assays. […] Cell lines were verified by STR analysis by Genetica DNA Laboratories (Burlington, NC). MTXRIIOua^R2-4 (i.e. R2) Chinese hamster ovary (CHO) cells were generously provided by Dr. Wayne Flintoff (University of Western Ontario) (54). […]

[2] = system: human MIA PaCa-2 pancreatic adenocarcinoma xenografts; assay: in vivo efficacy trial with MIA PaCa-2 pancreatic cancer xenografts; design: species or system SCID mice
Protocol: Female ICR SCID mice (10 weeks old; 19 g average body weight) were implanted bilaterally with human MIA PaCa-2 tumors. […] The mice were weighed and tumors were measured with a caliper two-to-three times weekly; mice were sacrificed when the cumulative tumor burden reached 1500 mg. Tumor weights were estimated from two-dimensional measurements, where tumor mass (in mg) = (a x b^2)/2, and a and b are the tumor length and width in mm, respectively. The tumor masses from both tumors on each mouse were added together, and the total mass per mouse was used for calculations of anti-tumor activity. Quantitative end-points include: (i) tumor growth delay [T-C, where T is the median time in days required for the treatment group tumors to reach a predetermined size (e.g., 1000 mg), and C is the median time in days for the control group tumors to reach the same size; tumor-free survivors are excluded from these calculations]; and (ii) T/C (in percent) when treatment (T) and control (C) groups for the control groups reached 700 mg in size (exponential growth phase). The median value of each group was determined (including zeros). Mouse weights were monitored as a gauge of drug toxicity.
Female ICR SCID mice (10 weeks old; 19 g average body weight) were implanted bilaterally with human MIA PaCa-2 PaC tumors.
In vivo efficacy trial with MIA PaCa-2 pancreatic cancer xenografts. Methods for in vivo maintenance of MIA PaCa-2 tumor xenografts and drug efficacy evaluations are analogous to those previously described (58, 62-67). MIA PaCa-2 human pancreatic cancer cells (5 × 10^6 cells/flank) were bilaterally implanted subcutaneously with tumor fragments (30-60 mg) with a 12-gauge trocar in female […] SCID mice (NCI Animal Production Program). The mice were 10 weeks old on day 0 (tumor implant) with an average body weight of 19 g. For the efficacy trial, the mice were maintained on either a folate-deficient diet from Harlan-Teklad (TD.00434) starting 14 days before subcutaneous tumor implant to ensure serum folate levels would approximate those of humans. A separate cohort of mice was fed a folate-replete control diet from Lab Diet (5021). Mice were supplied with food and water ad libitum. Serum folate concentrations were monitored prior to tumor implant and post study by Lactobacillus casei bioassay (68). The mice in each group (folate-deficient and standard diet) were pooled before unselective distribution to the treatment and control groups. […] The drugs were dissolved in 5% ethanol (v/v), 1% Tween-80 (v/v), and 0.5% NaHCO3 and were administered intravenously (0.2 ml/injection). The mice were weighed and tumors were measured with a caliper two-to-three times weekly; mice were sacrificed when the cumulative tumor burden reached 1500 mg. Tumor weights were estimated from two-dimensional measurements, where tumor mass (in mg) = (a × b^2)/2, and a and b are the tumor length and width in mm, respectively. The tumor masses from both tumors on each mouse were added together, and the total mass per mouse was used for calculations of anti-tumor activity. Quantitative end-points include: (i) tumor growth delay [T-C, where T is the median time in days required for the treatment group tumors to reach a predetermined size (e.g., 1000 mg), and C is the median time in days for the control group tumors to reach the same size; tumor-free survivors are excluded from these calculations]; and (ii) T/C (in percent) when treatment (T) and control (C) groups for the control groups reached 700 mg in size (exponential growth phase). The median value of each group was determined (including zeros). Mouse weights were monitored as a gauge of drug toxicity.

[3] = system: R2 (null) (CHO); assay: proliferation assay, R2 transporter-null CHO cells; type: cell-based, Chinese hamster; conditions: Cricetulus griseus, folate-/glycine-free RPMI1640 with 25 nM leucovorin, 96 h, drug 0-1000 nM, read-out: IC50s (SE) R2 (null) (CHO)
Protocol: Proliferation assays were performed with engineered Chinese hamster ovary (CHO) cell lines R2 (transporter-null), PC43-10 (expresses RFC only), RT16 (FRα only), and R2/PCFT4 (PCFT only) cultured in folate-/glycine-free RPMI1640 supplemented with 25 nM leucovorin. Additional results are shown for HCT116 (colon tumor cells (CTC)), IGROV1 (epithelial ovarian cancer (EOC) cells), H460 (non-small cell lung cancer (NSCLC) cells), MIAPaCa-2 (pancreatic cancer (PaC) cells), and HPAC (PaC).
Cell culture and proliferation/protection assays. […]
For proliferation assays with the CHO cell lines, the cells were treated with drugs (0-1 µM) in a 96-well plate (2000 cells/well) in glycine-free, nucleoside-free folate-free RPMI supplemented with 10% dialyzed fetal bovine serum, 1% penicillin/streptomycin, 2 mM L-glutamine, and 25 nM leucovorin (final volume 200 µL) over a 96 h incubation period at 37° C. with 5% CO2. […] To quantify viable cells, the media was removed and plates were washed once with 100 µL Dulbecco’s Phosphate-Buffered Saline (PBS), after which 100 µL PBS and 20 µL Cell Titer-blue (Promega) were added. Relative cell numbers were proportional to the fluorescence measured with a fluorescence plate reader (590 nm emission, 560 nm excitation). […]

[4] = IV, AGF291 Q6dx3 start d3, total 23.5 mg/kg, Gemcitabine Q4dx4 start d3, total 480 mg/kg

Molecule | IC50 [1] | Mean Body Weight Loss (g/mouse) [2, 4] | Percent Body Weight Loss [2, 4] | median tumor burden on day 14 ([2]; day 14, control cohort 1321 mg) | Median Tumor Burden in mg on d16 (range) ([2]; day 16, IV, AGF291 total 23.5 mg/kg, Gemcitabine total 480 mg/kg) | Tumor Free on d52 ([2]; day 52, mice tumor free/total) | Tumor Growth Delay (T-C) ([2]; median T-C to reach 1000 mg, AGF291 total 23.5 mg/kg, Gemcitabine total 480 mg/kg) | Time to 1000 mg in days (range) ([2]; median, IV, AGF291 total 23.5 mg/kg, Gemcitabine total 480 mg/kg) | weight loss (median nadir) ([2]; nadir on day 17 for AGF291, day 6 for GEM, completely reversible after cessation of therapy) | T/C% ([2]; treated/control median tumor burden, AGF291 7.75 mg/kg/inj Q6dx3, GEM 120 mg/kg/inj every 4 days, start day 3) | IC50 [3] | T-C (1000 mg) ([2]; AGF347 Q2dx8 at 15 mg/kg/inj, total dose 120 mg/kg, start day 3) | mice disease-free at 122 days ([2]; AGF347 Q2dx8 at 15 mg/kg/inj, total dose 120 mg/kg, 122 days)
Nc1nc2ccn(CCCc3ccc(C(=O)N[C@@H](CCC(=O)O)C(=O)O)cc3)c2c(=O)[nH]1 [AGF291] | 282 nM | -1.8 g/mouse | -8.9% | 256 mg | 334 (0-1221) mg | 0/5 | 10.5 days | 23.0 (15.0-51) days | 9% | 19% | > 1000 nM | – | –
(2-amino-4-oxo-3,4-dihydro-5H-pyrrolo[3,2-d]pyrimidin-5-yl)butyl)-2-fluorobenzoyl)-L-glutamic acid [AGF347] | – | – | – | – | – | – | – | – | – | – | – | 54 days | 1/5

Reference: US20230091810A1, “FIRST-IN-CLASS OF SHMT2 AND MTHFD2 INHIBITORS AS ANTITUMOR AGENTS” (Duquesne University of the Holy Spirit, priority 2017, published 2023)
